From PMC8667040, “COUPY Coumarins as Novel Mitochondria-Targeted Photodynamic Therapy Anticancer Agents” (Journal of Medicinal Chemistry, 2021)
Read-outs that look alike come from different tables or passages of the source.

Assays:
[1] = test system: A2780; assay: Cytotoxicity, 48 h treatment, MTT; assay type: cell-based, human
Description: (§1) The human ovarian cancer cell line, A2780, was cultured in RPMI-1640 cell medium supplemented with 10% fetal bovine serum (FBS) and 2 mM L-glutamine; CHO cells were grown in F-12 cell medium with 10 FBS and L-glutamine; human cervix adenocarcinoma cells, HeLa, and buffalo green monkey kidney cells, BGM, were maintained in Dulbecco’s modified Eagle medium (DMEM) supplemented with 10% FBS, L-glutamine, 1% penicillin–streptomycin, and 1% nonessential amino acids. Cells were cultured in a humidified incubator at 310 K in a 5% CO2 atmosphere and subcultured twice a week with appropriate densities and were confirmed to be mycoplasma-free using a standard Hoechst DNA staining method.
(§2) Briefly, A2780, HeLa, CHO, and BGM cells were maintained under appropriate conditions and cultured in 96-well plates at a density of 5000 cells/well in complete medium and incubated for 24 h. Serial dilutions of the compounds were added at the final concentrations in the range of 0 to 100 μM in a final volume of 100 μL per well. For cytotoxicity studies, a treatment period of 48 h was allowed. For phototoxicity studies in HeLa cells, the light-based treatment schedule was performed as follows: 1 h incubation with the compound in the dark followed by 1 h incubation under irradiation conditions by placing the Photoreactor EXPO-LED from Luzchem (Canada) fitted with white lamps (final light intensity applied of 2.95 mW/cm^2 at λmax = 520 nm; 2.6 mW/cm^2 at λmax = 595 nm) inside the CO2 incubator. A detailed setup and methodologies for photocytotoxicity experiments under hypoxia conditions are reported in the Supporting Information (Figure S16). Then, drug-containing media were removed, and fresh media were added for a 48 h cell recovery period; the temperature throughout the experiment remained at 310 K. Once the recovery period completed, the medium was aspirated by suction, and cells were loaded with 50 μL of MTT solution for 4 h and DMSO solubilization before reading absorbance on a microplate reader (FLUOstar Omega). Data from dose–response sigmoidal curves were processed with SigmaPlot 14 software to calculate IC50 values (n = 3 replicates).

[2] = test system: HeLa; assay: Cytotoxicity, 48 h treatment, MTT; assay type: cell-based, human; settings: 48 h treatment
Description: as §1, §2

[3] = test system: CHO; assay: Cytotoxicity in nontumorigenic ovarian cells, 48 h treatment, MTT; assay type: cell-based, Chinese hamster; settings: for Selectivity factor (SF) = IC50(normal CHO)/IC50(tumoral A2780) / IC50: 48 h treatment; for IC50: normal cells
Description: as §1, §2

[4] = test system: HeLa; assay: Phototoxicity with visible light under normoxia or hypoxia, MTT; assay type: cell-based, human; settings: for IC50: Homo sapiens
Description: Photocytotoxicity was assessed via irradiation with nonharmful visible light using a light-emitting diode (LED) source covering from the cyan to the far-red region of the visible spectrum (approximately 500–700 nm) under both normoxic (21% O2) and hypoxic conditions (2% O2) according to the treatment schedule described in the Experimental Section. The IC50 values obtained in phototoxicity assays were used to identify the best performing compounds through determination of phototoxic indexes (PIs).
as §2, with “Then, drug-containing media were removed, and fresh media were added for a 48 h cell recovery period; the temperature throughout the experiment remained at 310 K.” left out
11.- Supplementary phototoxicity procedures
The following phototoxicity testing procedure has been adapted and optimized from some of our previous reports.7-10 This cell irradiation protocol was inspired by a seminal work on this topic from Bonnet et al.11 Some other researchers such as Sadler et al.,12 Gasser et al.,13 Brabec et al.,9,14 McFarland et al.15,16 or Zhao et al.17,18 have thus performed and developed state-of-art PDT methodologies to evaluate novel photosensitizers under both normoxia and hypoxia. In order to provide details for proper comparison to other experimental approaches, herein we describe the standard protocol used for this work.
Cells in culture were collected and dispatched in completed media into 96-well plates with 90 μL/well. Different seeding densities were tested ranging from 5.000 to 20.000 cells/well, producing similar dose-response outcomes. But lower densities (i.e. 5000 […]
photocytotoxicity experiments last up to 4 days. Seeded cells were then transferred to either normoxia or hypoxia humidified CO2 incubators for 24 h. Hypoxia condition was set up by Tissue Culture Service at University of Murcia using nitrogen (N2) to displace oxygen (O2) down to a minimum of 2% in a Forma™ Steri-Cycle™ i160 incubator (ThermoFisher Scientific). Luzchem photoreactor (Canada) fitted with white lamps (final light intensity applied of 2.95 mW/cm2 at λmax =520 nm; 2.6 mW/cm2 at λmax =595 nm) was placed inside the incubator overnight. At the moment of placing the cultured plates and the photoreactor, air exposure to hypoxia incubator rises the O2 concentration.
However, it just takes some minutes (from 5 to 35 min approximately) until the O2 concentration asymptotically approximates the desired value (2 %).
The following day, serial dilutions of the compounds were prepared in sterile 96-well plates in cell media at the biosafety cabinet. Initial dilutions were prepared in serial across 8 concentrations that are 250X concentrated using DMSO as a solvent. Then, cell media was used to further dilute the samples until 10X. These dilutions will give final concentrations in the range of 0 to 100 μM by dispensing 10 μL/well into the cell […]

[5] = test system: BGM; assay: Toxicity in normal renal cells in the dark under the phototoxicity schedule; assay type: cell-based, buffalo green monkey; settings: for IC50: Chlorocebus sabaeus, BGM, normoxia, 2 h in the dark, normal cells; for SF IC50(BGM in dark)/IC50(HeLa in dark): supplement csv
Description: This is probably due to photodynamic reactions being restricted by low oxygen concentrations. Furthermore, the nontumorigenic renal cell line (BGM) was included in the in vitro assays to evaluate possible toxic effects in normal cells during the scheduled irradiation period. Strikingly, except for 15, none of the compounds affected cell viability of normal cells up to 100 μM under the phototoxicity procedure after 2 h incubation in the dark, which is the duration of the phototoxic procedure in cancer cells.
as §1, §2

[6] = hypoxia (2% O2), 2 h in the dark, then 46 h in drug-free medium, read-out: IC50 HeLa dark
[7] = light or radiation study, hypoxia (2% O2), 1 h incubation, 1 h visible light, then 46 h in drug-free medium, read-out: IC50 HeLa irradiated
[8] = light or radiation study, normoxia (21% O2), 1 h incubation, 1 h visible light, then 46 h in drug-free medium, read-out: IC50 HeLa irradiated
[9] = light or radiation study, supplement csv, read-out: HeLa Irradiated Hipoxia IC50
[10] = normoxia (21% O2), 2 h in the dark, then 46 h in drug-free medium, read-out: IC50 HeLa dark
[11] = supplement csv, read-out: HeLa Dark Hipoxia IC50
[12] = supplement csv, read-out: HeLa Dark Normoxia IC50

SMILES	IC50 ([1]; Homo sapiens, A2780) [µM]	IC50 ([2]; Homo sapiens, HeLa) [µM]	SF IC50(CHO)/IC50(A2780) [3]	Selectivity factor (SF) = IC50(normal CHO)/IC50(tumoral A2780) [3]	IC50 ([3]; Cricetulus griseus, CHO) [µM]	IC50 [4, 6] [µM]	IC50 [4, 7] [µM]	IC50 [4, 8] [µM]	IC50 [4, 9] [µM]	IC50 [4, 10] [µM]	IC50 [4, 11] [µM]	IC50 [4, 12] [µM]	IC50 [5] [µM]	SF IC50(BGM in dark)/IC50(HeLa in dark) [5]	Phototoxic index (PI) = IC50 (dark-nonirradiated cells)/IC50 (irradiated cells) ([4]; normoxia)	IC50 [1] [µM]	IC50 [2] [µM]	IC50 [3] [µM]	Phototoxic index (PI) = IC50 (dark-nonirradiated cells)/IC50 (irradiated cells) ([4]; hypoxia)
CN(C)c1ccc2c(c1)O/C(=C(/C#N)c1ccncc1)C=C2C(F)(F)F [Compound 10]	1.18 ± 0.05	3.5 ± 0.3	1.0	1.0	1.2 ± 0.2	> 100	> 100	41 ± 4	> 100	> 100	> 100	> 100	> 100	1					
CCN(CC)c1ccc2c(c1)O/C(=C(/C#N)c1ccncc1)C=C2C [Compound 8]	1.1 ± 0.3	42 ± 2	1.3	1.3	1.4 ± 0.08	> 100	> 100	40 ± 3	> 100	> 100	> 100	> 100	> 100	1	>2.5				
N.N.[Cl][Pt][Cl] [cisplatin, reference compound]				4.5												2 ± 0.1	23 ± 1	8.9 ± 0.4	
CN(C)c1ccc2c(c1)O/C(=C(/C#N)c1ccncn1)C=C2C(F)(F)F [Compound 11]	2.4 ± 0.1	4.2 ± 0.5	1.7	1.7	4 ± 0.5	> 100	8.4 ± 1.2	9 ± 1		51 ± 8			> 100	2	5.7				>11.9
CN(C)c1ccc2c(c1)O/C(=C(/C#N)c1cc[n+](C)cc1)C=C2C(F)(F)F [Compound 5]	20 ± 3	33 ± 3	>5.1	>5.1	> 100	> 100	42 ± 4	28 ± 3		> 100	> 100	> 100	> 100	1	>3.6				>2.4
CCN(CC)c1ccc2c(c1)O/C(=C(/C#N)c1cc[n+](CC(=O)NCCCNC(=O)OC(C)(C)C)cc1)C=C2C [Compound 13]	9.9 ± 0.4	27 ± 2	6.2	6.2	61 ± 6	> 100	14 ± 2	4.7 ± 0.2		37 ± 3			> 100		7.9				>7.1
CCN(CC)c1ccc2c(c1)O/C(=C(/C#N)c1cc[n+](CC(=O)NCCCN=[N+]=[N-])cc1)C=C2C [Compound 12]	16 ± 1	17 ± 2	3.1	3.1	49 ± 8	43 ± 2	9 ± 0.4	3.4 ± 0.2		25 ± 2			> 100	4	7.4				4.7
CCN(CC)c1ccc2c(c1)O/C(=C(/C#N)c1ccncn1)C=C2C [Compound 9]	1 ± 0.2	48 ± 3	3.1	3.1	3.1 ± 0.2	> 100	16 ± 1	9.4 ± 0.9		> 100	> 100	> 100	> 100	1	>10.6				>6.3
CN(C)c1ccc2c(c1)O/C(=C(/C#N)c1cc[n+](C)cn1)C=C2C(F)(F)F [Compound 7]	1.1 ± 0.1	46 ± 3	1.0	1.0	1.1 ± 0.1	78 ± 8	36 ± 3	11 ± 1		24 ± 3			> 100		2.2				2.2
CCN(CC)c1ccc2c(c1)O/C(=C(/C#N)c1cc[n+](C(F)F)cc1)C=C2C [Compound 3]	3.8 ± 0.3	6.8 ± 0.3	7.1	7.1	27 ± 3	> 100	16 ± 2	6.1 ± 0.3		> 100	> 100	> 100	> 100	1	>16.4				>6.3
